Holding throughout (experiment): NCI-60 cell line screen, 48 h
Test [1] concerns SNB-78 CNS.
The subject of test [2] is TK-10 renal.
For test [3], the system named is HOP-18 NSCLC.
Test [4] deals with DLD-1 colon.
Test [5] concerns XF 498 CNS.
Test [6] has as its system SNB-19 CNS.
Test [7] deals with DMS 273 small cell lung.
In test [8] the test system is MCF7 breast.
Test [9] relates to BT-549 breast.
The subject of test [10] is DU-145 prostate.

The structures appear in SMILES notation. Several values for one entry are separate records, joined by “and”; a condition that tells them apart may be missing. Equal entries are not always repeated.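 Five compound concentrations were applied to cells in 96-well plates for 48 hours; endpoints were derived by simple linear interpolation of the resulting dose-response curve. At the GI50, growth is halved. TGI is the concentration that stops growth completely.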

As for `COc1cc(C2C(C(=O)Nc3ccccc3C)=C(C)NC(C)=C2C(=O)Nc2ccccc2C)ccc1O`, the TGI in test [1], in [2], in test [3], in [4], in test [5] and in test [6] was greater than 100 µM in each case. For the same compound, the TGI in [7] was greater than 100 µM.
With `Cn1c(=O)c2nc3sc4ccccc4c(=N)n3c2n(C)c1=O`, the TGI in test [1], in test [2], in test [3], in test [4], in test [5] and in [6] was greater than 100 µM in each case. The TGI in test [7] was greater than 100 µM.
Consider `O=C1OC(=O)C2C1C1(c3ccccc3)OC2(c2ccccc2)c2c(Br)c(Br)c(Br)c(Br)c21` (configuration not stated), for which the TGI in test [1], in [2], in [3], in [4], in [5] and in test [6] was greater than 100 µM in each case. Further, the TGI in [7] is greater than 100 µM.
For `N[C@@H](Cc1ccc(N(CCCl)CCCl)cc1)C(=O)O`, the GI50 in test [1] was 25.6 µM; in [2], 75.3 µM; in test [8] it was 5.53 µM and 6.95 µM; in test [9], 27.8 µM; in [10], 18.8 µM; in [3] it was 23.7 µM and 55.1 µM. Also, the GI50 was 24.5 µM in [4]; 20.9 µM and 22 µM in test [5]; 30.4 µM and 23 µM in [6]; 6.97 µM in [7]. The TGI in test [1] is 83.7 µM and 205 µM; in test [2] it was > 100 µM and 175 µM; in test [8] it was > 100 µM and 50.4 µM and 97.2 µM; in [9] it was > 100 µM and 100 µM; in [10], 85.7 µM and 227 µM; in test [3] it was 64.5 µM and 158 µM. Besides, the TGI in test [4] is > 92 µM and 193 µM; in [5] it was 49.3 µM and 66.3 µM; in test [6] it was > 100 µM and 41.6 µM and 204 µM; in [7] it was 33.6 µM and 68.3 µM.
With `CC1(C)OC(=O)C(c2ccsc2)C(=O)O1`, the TGI in test [1], in test [2], in [3], in [4], in test [5] and in test [6] was greater than 100 µM in each case. In [7], this compound yielded a TGI greater than 100 µM.
Turning to `COc1nc(C(Cl)(Cl)Cl)c(Cl)c(OC)c1Cl`, the TGI in test [1] was determined as 72.3 µM; in test [2], 94.5 µM; in [8] it was 66.8 µM; in test [9] it was 71.3 µM; in test [10], 73.2 µM; in [3], 70.1 µM. In addition, the TGI in test [4] is 79.8 µM; in test [5], 54.5 µM; in test [6], > 59.3 µM and 59.4 µM; in [7], 75.3 µM. Also, the GI50 in test [2] was greater than 91.6 µM; in test [4], 31.7 µM; in test [6], greater than 40.8 µM.
For `CSc1nnc2n1-c1ccccc1SCC2`, the TGI in [1], in test [2], in test [3], in test [4], in test [5] and in test [6] was greater than 100 µM in each case. The TGI in test [7] was greater than 100 µM.
For the compound `O=CN/C=C\c1cc(O)ccc1O`, the TGI in test [1] was greater than 100 µM; in test [2], greater than 64.7 µM; in test [3], 30.7 µM; in test [4] it was 31.6 µM; in test [5] it was 28.8 µM; in [6], greater than 100 µM. This compound also gave a TGI in [7] greater than 41.1 µM.
Turning to `CCOC(=O)/C(C#N)=C/c1[nH]c(C)c(C)c1C`, the TGI in test [1], in [2], in [3], in test [4], in [5] and in test [6] was greater than 100 µM each time. In test [7], this compound came in with a TGI greater than 100 µM.

These data come from PubChem BioAssay (NCI).
